No end group written: not given here.

One experiment has as its system bacteria. The conditions noted are these: cited from earlier work.
A further experiment relates to MRSA. The experiment in a line: bacterial clearance in lung lavage fluid of rats with MRSA-induced pneumonia. The experiment is classed as in vivo, rat. To be noted: HNP-1 0.1 ml of 20 μg/ml (2 μg); penicillin 12 μg/ml; intratracheal spray once daily for 3 days.
Experiment [1] relates to RecA. The conditions noted are these: real-time RT-PCR, mRNA normalized to 16s.
Description: (F) Quantification of RecA mRNA in MRSA by real-time RT-PCR.
Analysis of gene expression by real-time RT-PCR. mRNA from RecA and
LexA was measured by real-time PCR (RT-PCR). XPX-1 cells harvested 3 h after
induction and the total RNA was extracted with the TRIzol® Reagent (Thermo
Fisher Scientific, Waltham, MA, USA) according to the manufacturer’s instruction.
Reversed transcription was performed with the ReverTra Ace qPCR RT Kit
(TOYOBO, Osaka, Japan). The primer sequence of RecA and LexA was as follows:
RecA (forward 5’-[sequence]-3’, reverse
5’-[sequence]-3’); LexA (forward
5’-[sequence]-3 ’ , reverse 5 ’
-[sequence]-3’ ). The relative expression level of RecA and
LexA was normalized to 16s by using the 2- CT method(11).
For experiment [2], the system named is RecA. Put plainly: RecA mRNA by real-time RT-PCR in MRPA. The experiment is classed as cell-based. The conditions noted are these: mRNA normalized to 16s. (In general: Quantitative PCR measures a nucleic acid by following its amplification.)
A further experiment can be described thus: H&E lung pathology. The experiment is classed as in vivo, rat. To be noted: MRSA-induced pneumonic rats.
For a further experiment, the system named is E. coli strain XPX-1. Put plainly: growth and viable count of E. coli XPX-1 after IPTG-induced expression. The experiment is classed as cell-based. The conditions noted are these: XPX-1, 1 mM IPTG, Luria-Bertani medium, 37°C.
A further experiment concerns E. coli. Put plainly: growth curve of E. coli treated with purified recombinant peptides. The experiment is classed as cell-based. To be noted: 20 μg/ml; compared with regular growth medium without IPTG induction.
The test system of experiment [3] is RecA. As to the method: The inclusion bodies were solubilized in denaturing solution (20 mM Tris, 8 M urea, 20 mM DTT, pH 8.5) at a ratio of 1:20 (grams of inclusion body wet weight: mL of volume) and the suspension was shaken gently for 4 h at room temperature.
After centrifugation at 12,000 ×g for 15 min, the supernatant was diluted directly into refolding buffer (20 mM Tris,1 mM cystine, 3 mM cysteine, 2 M urea, pH 10.0).
After refolding at 4°C overnight, the sample pH was adjusted to 4.5 and the sample was centrifuged at 4,000 ×g for 20 min.
The solubilized protein samples were loaded onto a pre-equilibrated HiTrap Chelating HP (5 mL, GE Healthcare, Chicago, IL, USA) ata flow rate of 10 mL/min inbuffer A (20 mM Tris, 2 M NaCl, pH 7.5). […] The purified preproHNP-1 was quantified with BCA according to standard procedures. […]
imidazole) and analyzed by a 12% Tris-Tricine gel followed by Coomassie brilliant blue G-250 staining. […]
Proteomics analysis. […] After in-gel digestion by trypsin, the samples were analyzed by LC-MS/MS using a homemade column (75 μm internal diameter ×15 cm long) packed with 3 μm C18 reverse phase beads (Michrom Bioresources, Inc., Auburn, CA, USA), a 60 min gradient was performed on an LTQ-Orbitrap Velos mass spectrometer (Thermo Fisher Scientific, San Jose, CA, USA). […]

Description for E. coli strain XPX-1: XPX-1 cells were grown to an approximate optical density (OD600) of 0.4 in 20 ml of Luria−Bertani medium containing kanamycin (50 μg/ml) at 37°C, and then IPTG was added at a final concentration of 1 mM to induce the expression of preproHNP-1.
(B) Growth curves of E. coli strain XPX-1 containing pET-28a(+)-preproHNP-1 with (+IPTG) or without (−IPTG) 1 mM IPTG induction. […] Data were analyzed using a two-tailed Student's t test and plotted as the mean ± SD for each condition. **, P < 0.01.
The induction time points of IPTG are labeled as indicated. […] The induction time points of IPTG are labeled as indicated. (D) Bacterial colony count after IPTG induction. The induction time points are labeled as indicated. The number of viable cells were counted after growing for 16 h on plates containing Luria-Bertani broth media. […] The growth curve of E. coli strain XPX-1 with 1 mM IPTG induction as a positive control and XPX-1 without IPTG induction as a negative control. […] Data were analyzed using a two-tailed Student's t test and are plotted as the mean ± SD for each condition. *, P < 0.05 and **, P < 0.01.
E. coli strains and plasmids.
After verifying the sequence, the vectors were transformed into E. coli BL21 (DE3) competent cells to obtain XPX-1, which was used to express the recombinant protein preproHNP-1. […]
Description for H&E lung pathology: (C) Pathological evaluation via H&E staining in pneumonic model rats. […] Data were analyzed using a two-tailed Student's t test and are plotted as the mean ± SD for each condition. n = 3; *, P < 0.05; and **, P < 0.01.
(§1) MRSA and MRPA were isolated from the Affiliated Hospital of Xuzhou Medical University (Jiangsu, China) and obtained from Professor Shengqi Wang (Xuzhou Medical University, Jiangsu, China). Bacterial pneumonia rats were prepared by spraying MRSA suspensions into the lungs via the trachea with a long soft plastic tube, as described in our previous research ([30]). The rats were inoculated using tracheal intubation with 0.2 ml of 10^8 CFU/ml MRSA suspensions. After 8 h, the rats were given medication. […] All of the medicines were sprayed into the rat lungs through the trachea using an intratracheal MicroSprayer Aerosolizer (IA-1B; PennCentury Inc., Wyndmoor, PA, USA) once daily for 3 days without anesthesia.
Preparation of pneumonic model rats and medicine administration. The
(§2) clinically isolated bacterial strain MRSA was cultivated in LB medium at 37 °C with
(§3) continuous shaking (200 rpm) overnight. Then, the concentration of MRSA was
(§4) determined by the optical density (OD) at 600 nm based on the turbidity of the cell
suspension. Subsequently, the bacterial suspension was diluted with LB medium, and
a final density of 10^8 CFU/mL was obtained for animal testing. Male […]
Description for MRSA: (B) Comparison of the bacterial counts in the different treatment groups. The number of MRSA isolated from lung lavage fluid were counted on the agar-containing culture plates followed by culturing for 36 h at 37°C. […] Data were analyzed using a two-tailed Student's t test and are plotted as the mean ± SD for each condition. n = 3; *, P < 0.05; and **, P < 0.01.
as §1
Preparation of pneumonic model rats and medicine administration.
as §2, §3, §4
suspension. […]

In the case of “HNP-2: antimicrobial peptide cited for filamentation (CYCRIPACIAGERRYGTCIYQGRLWAFCC; ends and bridges not checked; cysteine pairing not given here; UniProt P59665 66-94, looked up)”, the AMP-induced filamentation entry in the experiment with bacteria is recorded as “filamentation has also been described”.

Turning to PR-39, in the experiment on bacteria, the AMP-induced filamentation result is “filamentation has also been described”.

For “indolicidin (ILPWKWPWWPWRR; ends and bridges not checked; UniProt P33046 131-143, looked up) [antimicrobial peptide cited for filamentation]”, the AMP-induced filamentation result in the experiment with bacteria is on record as “filamentation has also been described”.

For the molecule penicillin, in the experiment on MRSA, the bacterial clearance effect entry is “neither HNP-1 nor penicillin treatment had any effect”. For the same molecule, in the experiment on RecA [1], the “RecA expression in MRSA” value was “increased significantly”. Further, the “RecA expression in MRPA” value with RecA [2] is given as “increased significantly”. Moreover, the “exudation, inflammation, hemorrhage (H&E)” value in the experiment “H&E lung pathology” is recorded as “alleviated these symptoms to a certain degree”.

B1: preproHNP-1: full-length precursor of HNP-1 tagged with six histidine residues, cloned into pET-28a(+), expressed in E. coli XPX-1 (protein, UniProt P59665 1-94, looked up)
chain: MRTLAILAAILLVALQAQAEPLQARADEVAAAPEQIAADIPEVVVSLAWDESLAPKHPGSRKNMACYCRIPACIAGERRYGTCIYQGRLWAFCC
modifications: full-length His6 tag
As to B1, the “OD600 reached after induction” value in the experiment on E. coli strain XPX-1 was approximately 1. Moreover, the “growth curve of E. coli in medium with purified protein” value in the experiment with E. coli is listed as “did not differ from those cultured in regular growth medium without IPTG induction”. Besides, the “interaction with RecA” value in the experiment with RecA [3] (anti-RecA co-immunoprecipitation) is given as “HNP-1, but not full length 6x His-tagged preproHNP-1, interacted with RecA”. In addition, the “co-precipitation with RecA over induction time” value in the experiment with RecA [3] (anti-RecA immunoprecipitation, Western blot with anti-HNP-1) is given as “decreased with time”.

B2: HNP-5: antimicrobial peptide cited for filamentation (peptide, UniProt Q01523 20-94, looked up)
Defensin alpha 5: ESLQERADEATTQKQSGEDNQDLAISFAGNGLSALRTSGSQARATCYCRTGRCATRESLSGVCEISGRLYRLCCR
modifications: Defensin-5
notes: antimicrobial peptide cited for filamentation
Regarding B2, the AMP-induced filamentation entry with bacteria was “filamentation has also been described”.

The record behind these values is paper PMC8754131 (Microbiology Spectrum, 2022).
